# Measurements reported in patent publication US20120328660A1, “IMMUNOGENIC COMPOSITIONS USEFUL IN PROVOKING AN INTEGRATED RESPONSE TO TUMOR ANTIGENS” (priority 2011, published 2012).
# Key:
# [1] = test system: CD4+ T cell lines; assay: Cytokine production of CD4+ T cell lines by sandwich ELISA; assay type: in vivo, human
# Method: Equal amounts of CD4^+ T cell lines created supra, and autologous EBV-B cells (5×10^4) were co-cultured in 250 μl RPMI and 10% FCS. After the EBV-B cells had been pulsed overnight or not with the assay OLPs and cultured for 24 hours, supernatant was harvested, and stored at −20° C. until sandwich ELISAs were carried out using standard methods. The cytokines which were assayed included IFN-γ, GM-CSF, IL-4, IL-9, IL-10, IL-13, IL-17, and TGF-β. These are all known to be produced by different CD4^+ subsets.
# [2] = test system: NY-ESO-1 region consisting of amino acids 100-129; assay: ELISA with assay OLPs as coating antigens to determine epitopes recognized by induced IgG; assay type: in vivo, human; conditions: accelerating the response, increasing titer, broadening antibody repertoire
# Method: In these experiments, the epitopes recognized by the NY-ESO-1 specific IgGs that were induced by immunization were determined. ELISAs were carried out, using standard methods, with the assay OLPs supra being used as coating antigens. Antibody titers of subjects were tested at week 16, with the exception of one sample, which was tested at week 13. IgG responses were most frequent and strongest against the NY-ESO-1 region consisting of amino acids 121-150. The NY-ESO-1 region consisting of amino acids 80-109 was also recognized frequently, and in the case of the NY-ESO-1 region consisting of amino acids 100-129, all patients who received the combination of the peptides, Montanide, and polyICLC had relevant antibodies, as did 4/9 of the patients who received the peptides in Montanide only. There was a much lower response to the NY-ESO-1 region consisting of amino acids 142-173. In all cases, polyICLC enhanced the humoral, immune response, not only by accelerating the response and increasing titer, but also by broadening antibody repertoire.
substance,measurement,setting,value
polyICLC,IL-9 production by T cells following immunization,[1]; in vivo,inhibited completely
same,level of IL-4,[1]; week 13 and 16,significantly suppressed
same,level of IL-9,[1]; week 13 and 16,significantly suppressed
same,level of IL-13,[1]; week 13 and 16,significantly suppressed
same,IL-9/IL-4 ratio,[1]; when polyICLC was used,significantly lower
same,effect on humoral immune response,[2],enhanced
